Experimental data taken from patent US11059823B2, “Small molecule inhibitors of the JAK family of kinases” (Janssen Pharmaceutica NV, priority 2016, dated 2021).

How the values were obtained:
MDCK-MDR1 cell line = assay: MDCK-MDR1 permeability assay; format: in vitro ADME; settings: apical-to-basolateral, with P-gp inhibitor elacridar (2 μM), 5 μM, 60 min
Procedure: Permeability measurements were conducted according to the Cyprotex protocol using the MDCK-MDR1 cell line obtained from the NIH (Rockville, Md., USA). […] The cells in this assay form a cohesive sheet of a single cell layer filing the surface area of the culture dish, also known as a confluent monolayer, and on day four the test compound was added to the apical side of the membrane and the transport of the compound across the monolayer was monitored over a time period of 60 min.
Test compounds were dissolved in DMSO at a concentration of 10 mM. The dosing solutions were prepared by diluting test compound with assay buffer (Hanks Balanced Salt Solution), pH 7.4, at a final concentration of 5 μM. For assessment of apical to basolateral (“A-B”) permeability, buffer was removed from the apical compartment and replaced with test compound dosing solution with or without the permeability glycoprotein (“PgP”, “P-gP”, “Pgp” or “P-gp”) inhibitor elacridar (2 μM). For assessment of basolateral to apical (“B-A”) permeability, buffer was removed from the companion plate and replaced with test compound dosing solution. Incubations were carried out in duplicate at 37° C. in an atmosphere of 5% CO2 with a relative humidity of 95%. Each assay included the reference markers propranolol (high permeability) and prazosin (PgP substrate). After incubation for 60 minutes, apical and basolateral samples were diluted and test compounds quantified by LC/MS/MS using an 8-point calibration in the range 0.0039 to 3 μM with appropriate dilution of the samples (receiver dilution factor=1; donor and Co dilution factor=10). The permeability coefficient (Papp) for each compound was calculated from the following equation: Papp=(dQ/dt)/(C0×S), where dQ/dt is the rate of permeation of the drug across the cells, C0 is the donor compartment concentration at time zero, and S is the area of the cell monolayer.
Papp(A-B) gives an indication of permeation extent across the cells in this assay, which is envisaged to model the transcellular transport across Pgp-expressing cells, such as Pgp-expressing gastrointestinal tract cells.

[1] = Physical stability of crystalline embodiments of compound Ex. 1 (polymorph screening, HT-XRPD); format: physicochemical; settings: for physical stability after exposure to AAC: accelerated aging conditions, 40° C./70% RH, two days
Procedure: Long term slurry experiments were performed by suspending compound embodiment 1s in twenty neat solvents and stirred at room temperature for two weeks and at 50° C. for one week. Upon completion of the equilibration time, the residual solids were separated from the mother liquors. The solids were dried under ambient conditions and dried under vacuum (5 mBar) before being analyzed by HT-XRPD. Subsequently, the solids were exposed to accelerated aging conditions (40° C./70% relative humidity) for two days and again analyzed by HT-XRPD.
Embodiment is converted to hydrated embodiment 10 when it was exposed to 100% RH at 25° C. […] This behavior is attributable to an unequally strong binding of all the hydration/solvation molecules. In this case, embodiment 10 would have a less strongly bound second water molecule that would be lost under ambient conditions. More precisely, the physical stability of embodiment is was investigated in climate chambers by exposing a 20 mg sample of such embodiment to 40° C. and 70% relative humidity for four days, and another 20 mg sample of the same embodiment was exposed also for four days to 25° C. and 100% relative humidity. After four days, the various solid samples were analyzed by HR-XRPD, the crystal cell parameters were determined and the diffractograms were indexed. From bottom to top, the first diffractogram in FIG. 6 corresponds to embodiment is as starting material, and the second corresponds to the same form after a 4-day exposure to 40° C. and 70% relative humidity, noted as “1s 70 RH” in the same figure. […] Indexing for such form was not possible due to the small amount in which it was present. The third diffractogram corresponds to embodiment is after a 4-day exposure to 25° C. and 100% relative humidity, noted as “10” in the same figure. […] Upon dehydration, both embodiments 1s and 10 re-crystallized to the anhydrous form with a melting point of 148° C.
The mother liquors of the solvent equilibration experiments performed at 50° C. were filtered at 50° C. to remove any particulate matter. […] When solids had precipitated during aging these solids were separated from the liquid, dried under ambient conditions and under vacuum, and analyzed by HT-XRPD. The remaining mother liquors were allowed to slowly evaporate and the remaining solids were analyzed by HT-XRPD. The samples in which no precipitation occurred were placed under vacuum and the dried solids were analyzed by HT-XRPD. All the solids were then exposed to AAC (2 days at 40° C./70% RH) and re-analyzed by HT-XRPD.
The cooling/evaporative crystallization experiments at L scale were performed in a 96-well plate, using 12 neat solvents and 12 solvent mixtures and applying four temperature profiles. […] Upon completion of the temperature profile the solvents were allowed to evaporate at low ambient pressure (24 hours) and the remaining solids were analyzed by HT-XRPD before and after exposure to AAC for 2 days (40° C./70% RH).
The cooling crystallization experiments with hot filtration were performed from supersaturated solutions of compound Ex. 1 prepared at 50° C. in different solvent mixtures. […] The vials in which solids had precipitated after the temperature profile were centrifuged and the solids were separated from the liquid and analyzed by HT-XRPD (after drying under vacuum). If no solids had precipitated the solutions were evaporated under vacuum and the solids analyzed by HT-XRPD. […]

moderate to severe CD = settings: 4 week/Phase 2 clinical trial; cited from earlier work

Structure (SMILES)	physical stability after exposure to AAC [1]	also measured
N#CC[C@H]1CC[C@H](n2c(CC(=O)NC3CCOCC3)nc3cnc4[nH]ccc4c32)CC1 [Ex. 5, 2-(1-((1r,4r)-4-(Cyanomethyl)cyclohexyl)-1,6-dihydroimidazo[4,5-d]pyrrolo[2,3-b]pyridin-2-yl)-N-(tetrahydro-2H-pyran-4-yl)acetamide]		MDCK-MDR1 P^eapp(A-B) @ 5 (μM) (MDCK-MDR1 cell line): 0.5 10^−6 cm/sec
CC(C)(O)CNC(=O)Cc1nc2cnc3[nH]ccc3c2n1[C@H]1CC[C@H](CC#N)CC1 [Embodiment 5]	physically unstable	
C[C@@H]1CCN(C(=O)CC#N)C[C@@H]1N(C)c1ncnc2[nH]ccc12 [tofacitinib]		clinical efficacy in Crohn's disease (moderate to severe CD): failure to achieve clinical efficacy
CC(C)(O)CNC(=O)Cc1nc2cnc3[nH]ccc3c2n1[C@H]1CC[C@H](CC#N)CC1 [Embodiment 2]	converted to embodiment 3e	
CC(C)(O)CNC(=O)Cc1nc2cnc3[nH]ccc3c2n1[C@H]1CC[C@H](CC#N)CC1 [Embodiment 10]		physical stability under ambient conditions ([1]; ambient conditions): limited physical stability
CC(C)(O)CNC(=O)Cc1nc2cnc3[nH]ccc3c2n1[C@H]1CC[C@H](CC#N)CC1 [Embodiment 6]	stable solid form	
CC(C)(O)CNC(=O)Cc1nc2cnc3[nH]ccc3c2n1[C@H]1CC[C@H](CC#N)CC1 [Embodiment 7]	physically stable	
